We go through 17 compounds from US20050187161A1, “Biopanning as an approach to study the pathogenesis of and produce novel treatment modalities for invasive Aspergillosis” (priority 2003, published 2005).

Ends that are not written are not given here.

The first assay relates to A. fumigatus conidia. Description: BRASIL selection of CX7C phage display library on A. fumigatus conidia. The following applies: after 4 selection rounds, clones with the motif / 40 random phage clones sequenced. In kind it is binding, Aspergillus fumigatus. On the procedure:
(§1) To identify potential host ligands that bind on the surface of A. fumigatus conidia and hyphae, a phage display library (CX7C) for A. fumigatus conidia and hyphae binding ligands using BRASIL is screened. The Aspergillus fumigatus clinical isolate AF293 (currently being used in the Aspergillus sequencing project, provided kindly by Dr. D. Denning, Manchester, UK.) is plated on YAG plates at 37° C. for 3 days and conidia are collected. Conidia (suspensions of 10^4 conidia/ml) are incubated at 37° C. for 16-20 hours in liquid YAG medium to allow for germination to hyphae. Conidia or hyphae, collected as described earlier, were then incubated with 10^9 transducing units (TU) of CX7C phage display library (Arap et al., 2002). A phage-conidia/hyphae suspension in an upper aqueous phase is centrifuged through a non-miscible organic phase with an intermediate specific density. Upon optimized centrifugation conditions conidia or hyphae entered the lower organic phase and pellet at the bottom of the tube, carrying with them only the specifically bound phage (FIG. 10). Dibutylphtalate:Cyclohexane ratio of the organic phase is preferably 6:1. Hyphae needed 100,000 g for pelleting as compared to 10,000 g for conidia (FIG. 10). The conidia/hyphae pellet is then recovered (after freezing, FIG. 10), and the phage is rescued by infection of E. coli K91kan bacteria (FIG. 1). Amplified phage was then used for subsequent rounds of selection (FIG. 10)
(§2) Infected E. coli K91Kan were incubated overnight in LB medium with kanamycin as selection marker (70 μg/ml), tetracycline that served as inducer of phage multiplication (40 μg/ml, the phage also contains the tetracycline resistance gene tetR), and voriconazole for suppression of conidial and hyphal growth (4 μg/ml). The next day, the phage was first separated from E. coli by centrifuigation, recovered using PEG/NaCl, and finally tittrated (to 109 TU units/μl) in order to be used in subsequent selection rounds.
(§3) After 4 rounds of selection for conidia 5 rounds for hyphae, peptide-inserts of 40 random phage clones (each for conidia and hyphae) were sequenced and analyzed for peptide sequences according to enrichment and by ClustalW sequence alignment. Selected motifs were then used to search non-redundant protein databanks.
Take “SLVRGGT (listed as Aspergillus fumigatus)”: the Times identified is 2/40.

As to “GGWGPGS (listed as Aspergillus fumigatus)”, the Times identified is on record as 2/40.

Take “SSGDRTA (listed as Aspergillus fumigatus)”: the Times identified is reported as 2/40.

For the compound “LLSATPS (listed as Aspergillus fumigatus)”, the Times identified is 8/40.

Consider “WGHSRDE (not fully specified (N-terminus, C-terminus, bridges); listed as Aspergillus fumigatus) [synthetic peptide used as …]”, for which the Times identified is 12/40.

“IGRAPQM (listed as Aspergillus fumigatus)”: the Times identified is reported as 2/40.

Regarding “GARASGS (listed as Aspergillus fumigatus)”, the Times identified is listed as 4/40.

“ELLRRGGS (ELRRGGS; listed as Aspergillus fumigatus)”: the Times identified is on record as 2/40.

A further assay has as its system Aspergillus.
Assay: not given
To be noted: Espinel-Ingroff, 1998; cited from earlier work.
With `CC[C@H](C)C[C@H](C)CCCCCCCCC(=O)N[C@H]1C[C@@H](O)[C@@H](NCCN)NC(=O)[C@@H]2[C@@H](O)CCN2C(=O)[C@H]([C@H](O)CCN)NC(=O)[C@H]([C@H](O)[C@@H](O)c2ccc(O)cc2)NC(=O)[C@@H]2C[C@@H](O)CN2C(=O)[C@H]([C@@H](C)O)NC1=O` [CAS, Caspofungin], the “Aspergillus growth in vitro” value is given as “growth reduction”.

The subject of a further assay is AF293 conidia. Description: Inhibition of WGHSRDE phage binding on AF293 conidia by synthetic peptide. More on the design: species or system Aspergillus fumigatus. The following applies: FIG. 13; synthetic peptide 0.1, 1, 10 and 100 μM. On the procedure: To validate that the CWGHSRDEC (SEQ ID NO:1) phage is mediating specific binding to AF293 conidia, the CWGHSRDEC (SEQ ID NO:) phage and the AF293 conidia are co-incubated in the presence of increasing concentrations of the CWGHSRDEC (SEQ ID NO: 1) peptide. A decrease in the amount of CWGHSRDEC (SEQ ID NO: 1) phage binding on the surface of AF293 conidia after adding the CWGHSRDEC (SEQ ID NO:1) peptide indicates the CWGHSRDEC (SEQ ID NO:1) peptide binds to the surface of AF293 conidia thus preventing the corresponding phage from binding on these sites.
Protocol: Increasing concentrations of the synthetic CWGHSRDEC (SEQ ID NO:1) peptide or a control scramble peptide (e.g., CLLSATPSC (SEQ ID NO:)) (0.1, 1, 10 and 100 μM) is incubated with 200 μl of a 5×10^8 AF293 conidia/ml solution in 1% BSA/PBS for 1 hour at room temperature and 10^8 TU of CWGHSRDEC (SEQ ID NO:1) phage is added and incubated for 2 hours at room temperature. The conidia/phage suspension is centrifuged over an organic phase for 10 min at 10,000 g. Pelleted conidia/phage is used for k91kan infection. The BRASIL method is followed as previously mentioned. A potential decrease in the phage binding on AF293 conidia as a function of the addition of the CWGHSRDEC (SEQ ID NO:1) peptide is graphed as shown in FIG. 13 (Giordano et al, 2001): […]
As for “WGHSRDE (not fully specified (N-terminus, C-terminus, bridges); listed as Aspergillus fumigatus) [synthetic peptide used as …]”, the “inhibition of WGHSRDE phage binding on AF293 conidia” value is recorded as “specific inhibition”.

The test system of another assay is A. fumigatus hyphae.
Assay: not given
To be noted: Bowman et al., 2002; cited from earlier work.
With `CC[C@H](C)C[C@H](C)CCCCCCCCC(=O)N[C@H]1C[C@@H](O)[C@@H](NCCN)NC(=O)[C@@H]2[C@@H](O)CCN2C(=O)[C@H]([C@H](O)CCN)NC(=O)[C@H]([C@H](O)[C@@H](O)c2ccc(O)cc2)NC(=O)[C@@H]2C[C@@H](O)CN2C(=O)[C@H]([C@@H](C)O)NC1=O` [CAS, Caspofungin], the “viability of growing A. fumigatus hyphae by DiBAC staining” value is on record as “kills the apical tips of hyphae”.

The subject of a further assay is A. fumigatus hyphae. Description: BRASIL selection of CX7C phage display library on A. fumigatus hyphae. In kind it is binding, Aspergillus fumigatus. The following applies: after 5 selection rounds, clones with the motif / 40 random phage clones sequenced. How it is done: as §1, §2, §3
On to “VVGSADG (listed as Aspergillus fumigatus)”, for which the Times identified is on record as 1/40.

Take “GGRLGPF (listed as Aspergillus fumigatus)”: the Times identified was 2/40.

In the case of “ISTFARG (listed as Aspergillus fumigatus)”, the Times identified is 1/40.

Turning to “XCDSSVS (not fully specified; X: residue not identified in the source; listed as Aspergillus fumigatus)”, the Times identified was 1/40.

For “NPGYWGN (listed as Aspergillus fumigatus)”, the Times identified is recorded as 1/40.

Consider “VGVEYRT (listed as Aspergillus fumigatus)”, for which the Times identified is reported as 1/40.

Take “GTSRWLR (listed as Aspergillus fumigatus)”: the Times identified was 1/40.

“DLTHVSA (listed as Aspergillus fumigatus)”: the Times identified is 1/40.

For the next assay, the system named is IA.
Assay: not given
To be noted: Abruzzo et al., 1997; cited from earlier work.
As to `CC[C@H](C)C[C@H](C)CCCCCCCCC(=O)N[C@H]1C[C@@H](O)[C@@H](NCCN)NC(=O)[C@@H]2[C@@H](O)CCN2C(=O)[C@H]([C@H](O)CCN)NC(=O)[C@H]([C@H](O)[C@@H](O)c2ccc(O)cc2)NC(=O)[C@@H]2C[C@@H](O)CN2C(=O)[C@H]([C@@H](C)O)NC1=O` [CAS, Caspofungin], the “efficacy in animal models of IA” value is recorded as “shown efficacy”.
